What was measured:
LasR = biological target: T1, LasR (Pseudomonas aeruginosa, UniProt P25084); test: Whole-cell sensing system harboring plasmid pSB1075 (lasR, PlasI::luxCDABE) in E. coli JM109, bioluminescence; type: cell-based; conditions: for Limit of Detection / Dynamic Range: pSB1075; for Limit of Detection: concentration giving signal >= blank average plus three standard deviations; for Signal Intensity at 1 × 10^−4 M: pSB1075 sensing cells, 2 h incubation at 37° C., racemic AHL, average ± one standard deviation (n = 3)
T1 construct: expressed in transfected cells; host or cells: Escherichia coli JM109 transformed with plasmid pSB1075
Procedure: (§1) The bacterial strain Escherichia coli JM109 was purchased from Stratagene (Cedar Creek, Tex.). Plasmids pSB406 and pSB1075 were transformed respectively into competent E. coli JM109 cells using the standard protocol provided by the manufacturer. The transformed cells were grown at 37° C. overnight on LB agar plates containing 50 μg/mL ampicillin. Cells from a single colony were grown overnight at 37° C., 250 rpm in LB broth containing the same amount (w/v) of ampicillin. Glycerol stocks were prepared from those cell cultures and stored at −80° C. Fresh cell cultures were obtained from the glycerol stocks and grown in an orbital shaker at 37° C., 250 rpm until an optical density at 600 nm (OD600 nm) of 0.45-0.50 was reached.
(§2) Commercially available AHLs were dissolved in acetonitrile to obtain 1×10^−2 M stock solutions, which were serially diluted with distilled, deionized water. AHL standard solutions of concentrations ranging from 1×10^−4 to 1×10^−9 M were obtained. A 1% solution of acetonitrile in distilled, deionized water was used as blank. […] A total of 100 μL of each of these solutions was added in triplicate to culture tubes containing 1 mL of cell culture grown to an OD600 nm of 0.45-0.50. These culture tubes were then incubated in an orbital shaker at 37° C. at 250 rpm for 2 h. The induced bioluminescence was then measured using a microplate reader after transferring 200 μL aliquots in triplicate from each culture tube into a 96-well micro titer plate. The total measuring time/well was 0.20 s. The light intensity was expressed in relative light units (RLU). The results were plotted using the software GraphPad Prism 4 (GraphPad Software, Inc., San Diego, Calif.).
(§3) Two different whole-cell sensing systems were used, harboring either the pSB406 or pSB1075 plasmid, which are based on P. aeruginosa quorum sensing regulatory systems. The plasmids pSB406 and pSB 1075 incorporate the genes rhlR and lasR, respectively, and the reporter gene cassette luxCDABE under transcriptional control of the promoters of the genes rhlI and lasI (PrhlI and PlasI) respectively. Since the rhlI and lasI genes code for the synthases for the AHLs, they are not cloned into plasmids used for sensing. When AHLs are present in the environment of the sensing bacterial cells, they bind to the regulatory proteins RhlR and LasR. Subsequently, the regulatory protein-AHL complex binds to the corresponding promoter and activates gene transcription (see, e.g., FIG. 2A for a schematic representation of AHL-dependent regulation of quorum sensing in LuxR/LuxI-type systems, and FIG. 2B for a schematic representation of plasmids pSB1075 and pSB406). As a result, the luxCDABE cassette is expressed and a bioluminescent signal is produced. Further, the bioluminescence signal produced is directly proportional to the amount of the target AHL molecule present.
The limit of detection was 1×10^−9 M for C14-HSL, as well as C12-HSL.

RhlR = biological target: T2, RhlR (Pseudomonas aeruginosa, UniProt P54292); test: Whole-cell sensing system harboring plasmid pSB406 (rhlR, PrhlI::luxCDABE) in E. coli JM109, bioluminescence; type: cell-based; conditions: for response of the biosensing system at the highest concentration tested: pSB406, 1×10^−4 M; for Limit of Detection: concentration giving signal >= blank average plus three standard deviations; for Signal Intensity at 1 × 10^−4 M: pSB406 sensing cells, 2 h incubation at 37° C., racemic AHL, average ± one standard deviation
T2 construct: expressed in transfected cells; host or cells: Escherichia coli JM109 transformed with plasmid pSB406
Procedure: as §1, §2, §3
Characterization of the whole-cell biosensing systems for the detection of AHLs was performed by incubating the bacterial cells with standard N-acyl homoserine lactone compounds with acyl side chains of different lengths. […] [19] […] Both compounds could be detected at concentrations as low as 1×10^−9 M, with a dynamic range of 4 orders of magnitude. The limit of detection was defined as the analyte concentration that produced a signal equal to or higher than the average signal produced by the blank plus three standard deviations.

V. harveyi strain BB170 = test: AI-2 whole-cell sensing with bioluminescent sensor strain BB170; type: cell-based, Vibrio harveyi; conditions: 10^−7 M AI-2, after 2.5 hours of incubation with the BB170 sensor strain
Procedure: AB media used to grow V. harveyi strain BB170, a genetically modified strain that produces light in response to AI-2, was prepared as described previously. The BB170 sensor strain was grown overnight in AB medium at 30° C. and 175 rpm. The following day, overnight grown BB170 culture was diluted in AB medium to obtain a final O.D.600 nm of 0.010.
Saliva samples were collected and processed as described hereinabove. The available stock of AI-2 was 3.9 mM. AI-2 standard solutions with concentrations ranging from 2.5×10^−4M to 10^−7M were then prepared by using distilled, deionized water. 10 μL of AI-2 standard solution was incubated with 90 μL of BB170 bacterial culture at O.D.600 nm 0.010, in triplicate on a microtitre plate. 10 μL water incubated with 90 μL of BB170 served as a blank. An orbital shaker set at 30° C. and 175 rpm was used for incubation. Bioluminescence was then measured over a period of time. In order to evaluate the effect of saliva matrix, saliva samples were also spiked with a particular concentration of AI-2 and then incubated with the BB170 strain. […]
Vibrio harveyi bioluminescent strain BB170 was used for the detection of AI-2 and was modified from the wild type V. harveyi so that it induces lux expression exclusively in response to AI-2. AI-2 is detected by BB170 when it binds to the periplasmic protein LuxP. […]

T1 sequence (P25084 whole entry): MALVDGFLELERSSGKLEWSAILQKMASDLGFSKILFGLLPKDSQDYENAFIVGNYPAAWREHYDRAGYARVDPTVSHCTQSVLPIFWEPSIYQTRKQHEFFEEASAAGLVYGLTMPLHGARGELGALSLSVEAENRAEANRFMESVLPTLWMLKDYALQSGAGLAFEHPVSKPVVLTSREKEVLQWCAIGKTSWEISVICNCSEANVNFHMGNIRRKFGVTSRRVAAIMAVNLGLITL
T2 sequence (P54292 whole entry): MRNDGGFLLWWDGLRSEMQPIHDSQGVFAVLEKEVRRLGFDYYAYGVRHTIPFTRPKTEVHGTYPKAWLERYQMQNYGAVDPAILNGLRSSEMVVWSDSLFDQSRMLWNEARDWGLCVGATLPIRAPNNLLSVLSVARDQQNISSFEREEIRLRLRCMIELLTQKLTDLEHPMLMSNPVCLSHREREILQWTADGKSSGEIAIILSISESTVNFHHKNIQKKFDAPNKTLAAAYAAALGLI

Compound | Limit of Detection (LasR) [nM] | Signal Intensity at 1 × 10^−4 M (LasR) | Dynamic Range (RhlR; pSB406) [nM] | dynamic range (RhlR; pSB406) | response of the biosensing system at the highest concentration tested (RhlR) | Limit of Detection (RhlR; pSB406) [nM] | Signal Intensity at 1 × 10^−4 M (RhlR) | Dynamic Range (LasR) [nM] | Average Signal (V. harveyi strain BB170) [RLU] | response of the whole-cell sensor at the highest concentration tested (LasR; pSB1075, 1×10^−4 M) | L-isomer versus DL-racemic mixture: limit of detection, dynamic range and maximum signal intensity of the dose-response curves (RhlR; pSB406)
CCCCCC(=O)NC1CCOC1=O (centres unmarked) [C6-HSL, N-hexanoyl homoserine lactone] | >100000 | 2.53 ± 1.15 ×10^5, RLU | 1 to 100000 | 4 orders of magnitude | induced the maximum response | 1 | 19.64 ± 0.25 ×10^5, RLU | – | – | – | –
CCCCCCCCCCCC(=O)NC1CCOC1=O (centres unmarked) [C12-HSL, N-dodecanoyl homoserine lactone] | 1 | 8.99 ± 0.17 ×10^5, RLU | 10 to 10000 | – | – | 10 | 8.40 ± 0.55 ×10^5, RLU | 1 to 10000 | – | – | –
Autoinducer-2 [AI-2] | – | – | – | – | – | – | – | – | 324218 | – | –
CCCC(=O)NC1CCOC1=O (centres unmarked) [C4-HSL, N-butyryl homoserine lactone] | 100 | 1.87 ± 0.06 ×10^5, RLU | 1 to 100000 | 4 orders of magnitude | induced the maximum response | 1 | 19.99 ± 0.00 ×10^5, RLU | 100 to 100000 | – | – | –
CCCCCCCCCCCCCC(=O)NC1CCOC1=O (centres unmarked) [C14-HSL, N-tetradecanoyl homoserine lactone] | 1 | 11.74 ± 0.09 ×10^5, RLU | – | – | – | >10000 | 4.22 ± 0.22 ×10^5, RLU | 1 to 100000 | – | induced the maximum response | –
CCCCCCCC(=O)NC1CCOC1=O (centres unmarked) [C8-HSL, N-octanoyl homoserine lactone] | 10000 | 7.94 ± 0.70 ×10^5, RLU | 1 to 100000 | – | – | 1 | 6.87 ± 0.23 ×10^5, RLU | 10000 to 100000 | – | – | –
CCCC(=O)CC(=O)N[C@H]1CCOC1=O [3-oxo-C6-HSL, N-(3-oxo)-hexanoyl homoserine lactone] | – | – | – | – | – | – | – | – | – | – | no significant differences
